The target of test [1] is T1, EPHB4 (Homo sapiens, UniProt P54760).
T1 construct: full-length kinase, C-terminal NanoLuc fusion, transfected HEK293 cells
The test is described as follows: NanoBRET target engagement, Tracer K10 displacement in live HEK293 cells. It is filed as cell-based. The note with it: […] h, […] C, n = […].

For test [2], the target named is T2, NTRK2 (Homo sapiens, UniProt Q16620).
T2 construct: full-length kinase, C-terminal NanoLuc fusion, transfected HEK293 cells
The description is as above. The format is cell-based. The note with it: […] h, […] C, n = […].
From the text: NanoBRET target engagement, Tracer K10 displacement in live HEK293 cells on NTRK2

Test [3] has as its target T3, SBK3 (Homo sapiens, UniProt P0C264).
T3 construct: full-length kinase, N-terminal NanoLuc fusion, transfected HEK293 cells
The description is as above. The note with it: […] h, […] C, n = […]. It is filed as cell-based.
From the text: NanoBRET target engagement, Tracer K10 displacement in live HEK293 cells on SBK3

Test [4] deals with T4, EPHA7 (Homo sapiens, UniProt Q15375).
T4 construct: full-length kinase, C-terminal NanoLuc fusion, transfected HEK293 cells
The test is described as above. It is filed as cell-based. The note with it: […] h, […] C, n = […].
From the text: NanoBRET target engagement, Tracer K10 displacement in live HEK293 cells on EPHA7

Test [5] has as its target T5, NTRK1 (Homo sapiens, UniProt P04629).
T5 construct: full-length kinase, C-terminal NanoLuc fusion, transfected HEK293 cells
The test is described as above. It is filed as cell-based. The note with it: […] h, […] C, n = […].
From the text: NanoBRET target engagement, Tracer K10 displacement in live HEK293 cells on NTRK1

Test [6] addresses T6, EPHA4 (Homo sapiens, UniProt P54764).
T6 construct: full-length kinase, C-terminal NanoLuc fusion, transfected HEK293 cells
Described as above. It is filed as cell-based. The note with it: […] h, […] C, n = […].
From the text: NanoBRET target engagement, Tracer K10 displacement in live HEK293 cells on EPHA4

Test [7] has as its target T7, AURKC (Homo sapiens, UniProt Q9UQB9).
T7 construct: full-length kinase, C-terminal NanoLuc fusion, transfected HEK293 cells
Described as above. It is filed as cell-based. The note with it: […] h, […] C, n = […].
From the text: NanoBRET target engagement, Tracer K10 displacement in live HEK293 cells on AURKC

In test [8] the target is TLK1 (Homo sapiens, UniProt Q9UKI8). The test can be described thus: cell-based. Details: NanoBRET live-cell target engagement; % occupancy from displacement of tracer K10 on NanoLuc-kinase fusions, mean n=3. The note with it: HEK293, read-out: % inhibition. The method, then: (§1) • 18. Prepare 10× test compounds in OptiMEM • a. Dilute the test compound to 1000× in DMSO (or the test compound solvent). […] Add 10μL per well of 10× test compound or 10μL of the DMSO control to the 96-well plates containing cells with 1× tracer. Mix on orbital shaker for 15 s at 900 rpm. • 20. Incubate the plate at 37°C + 5% CO2 incubator for 2hr. Allow plate to cool to RT for ∼15 min, then proceed to NanoBRET^TM Assay section below. • 21. Immediately before the BRET measurements, prepare 3× Complete NanoBRET^TM Nano-Glo® Substrate in OptiMEM without serum or phenol red. […] Mix gently by inverting 5–10 times in a conical tube. (The final concentration of Extracellular NanoLuc inhibitor in the 3× solution is 60 μM, for a working concentration of 20 μM.) • a. Note: 3× solutions should be used within 1.5 h after preparation. • 22. […] Incubate 2–3 min at RT. Following addition of NanoBRET^TM Nano-Glo® Substrate, measure donor emission (e.g., 450 nm) and acceptor emission (e.g., 610 nm or 630 nm) using a NanoBRET™-compatible luminometer. Fractional occupancy Quantitation • 2. Determine Fractional Occupancy with the following equation; % Occupancy = [1 – (X – Z)/( Y – Z)]∗100 • Where: • X = BRET in the presence of the test compound and tracer, • Y = BRET in the presence of the 100% BRET Control (Tracer + DMSO) • Z = BRET for the Zero BRET Control, e.g., • a. BRET from the NanoLuc Control Vector • b. BRET from Kinase/NanoLuc fusion + saturating dose of control test compound.

Test [9] deals with CSNK1A1L (Homo sapiens, UniProt Q8N752). The test is described as follows: cell-based. The note with it: HEK293, read-out: % inhibition. More on the design: NanoBRET live-cell target engagement; % occupancy from displacement of tracer K10 on NanoLuc-kinase fusions, mean n=3. The method, then:
as §1

In test [10] the target is LATS1 (Homo sapiens, UniProt O95835). The test is described as follows: cell-based. Details: NanoBRET live-cell target engagement; % occupancy from displacement of tracer K10 on NanoLuc-kinase fusions, mean n=3. The note with it: HEK293, read-out: % inhibition. The method, then: as §1
Test [11] addresses PTK6 (Homo sapiens, UniProt Q13882). The test is described as follows: cell-based. More on the design: NanoBRET live-cell target engagement; % occupancy from displacement of tracer K10 on NanoLuc-kinase fusions, mean n=3. The note with it: HEK293, read-out: % inhibition. The method, then:
as §1

Test [12] deals with CDKL1 (Homo sapiens, UniProt Q00532). The test can be described thus: cell-based. More on the design: NanoBRET live-cell target engagement; % occupancy from displacement of tracer K10 on NanoLuc-kinase fusions, mean n=3. The note with it: HEK293, read-out: % inhibition. The method, then: as §1
In test [13] the target is MYLK3 (Homo sapiens, UniProt Q32MK0). The test can be described thus: cell-based. Details: NanoBRET live-cell target engagement; % occupancy from displacement of tracer K10 on NanoLuc-kinase fusions, mean n=3. The note with it: HEK293, read-out: % inhibition. As to the method: as §1
Test [14] concerns the target RPS6KA2 (Homo sapiens, UniProt Q15349). The test is described as follows: cell-based. More on the design: NanoBRET live-cell target engagement; % occupancy from displacement of tracer K10 on NanoLuc-kinase fusions, mean n=3. The note with it: HEK293, read-out: % inhibition. As to the method: as §1
The target of test [15] is LATS2 (Homo sapiens, UniProt Q9NRM7). The test can be described thus: cell-based. More on the design: NanoBRET live-cell target engagement; % occupancy from displacement of tracer K10 on NanoLuc-kinase fusions, mean n=3. The note with it: HEK293, read-out: % inhibition. The method, then:
as §1

In test [16] the target is STK4 (Homo sapiens, UniProt Q13043). The test is described as follows: cell-based. More on the design: NanoBRET live-cell target engagement; % occupancy from displacement of tracer K10 on NanoLuc-kinase fusions, mean n=3. The note with it: HEK293, read-out: % inhibition. The method, then: as §1
Test [17] addresses STK38 (Homo sapiens, UniProt Q15208). The test can be described thus: cell-based. More on the design: NanoBRET live-cell target engagement; % occupancy from displacement of tracer K10 on NanoLuc-kinase fusions, mean n=3. The note with it: HEK293, read-out: % inhibition. The method, then:
as §1

In test [18] the target is CLK2 (Homo sapiens, UniProt P49760). The test is described as follows: cell-based. More on the design: NanoBRET live-cell target engagement; % occupancy from displacement of tracer K10 on NanoLuc-kinase fusions, mean n=3. The note with it: HEK293, read-out: % inhibition. The method, then:
as §1

The target in test [19] is STK3 (Homo sapiens, UniProt Q13188). The test can be described thus: cell-based. More on the design: NanoBRET live-cell target engagement; % occupancy from displacement of tracer K10 on NanoLuc-kinase fusions, mean n=3. The note with it: HEK293, read-out: % inhibition. The method, then:
as §1

The target of test [20] is T8, AXL (Homo sapiens, UniProt P30530).
T8 construct: full-length kinase, C-terminal NanoLuc fusion, transfected HEK293 cells
The test can be described thus: NanoBRET target engagement, Tracer K10 displacement in live HEK293 cells. The format is cell-based. The note with it: […] h, […] C, n = […].

Test [21] concerns the target T9, EPHA1 (Homo sapiens, UniProt P21709).
T9 construct: full-length kinase, C-terminal NanoLuc fusion, transfected HEK293 cells
The test is described as above. It is filed as cell-based. The note with it: […] h, […] C, n = […].
From the text: NanoBRET target engagement, Tracer K10 displacement in live HEK293 cells on EPHA1

Test [22] has as its target T10, EPHB1 (Homo sapiens, UniProt P54762).
T10 construct: full-length kinase, C-terminal NanoLuc fusion, transfected HEK293 cells
Described as above. The note with it: […] h, […] C, n = […]. The format is cell-based.
From the text: NanoBRET target engagement, Tracer K10 displacement in live HEK293 cells on EPHB1

The results in this text go back to publication PMC8449129, “Single tracer-based protocol for broad-spectrum kinase profiling in live cells with NanoBRET” (STAR Protocols, 2021).

Chain of STK3 (Q13188 whole entry, the tested form may be a part): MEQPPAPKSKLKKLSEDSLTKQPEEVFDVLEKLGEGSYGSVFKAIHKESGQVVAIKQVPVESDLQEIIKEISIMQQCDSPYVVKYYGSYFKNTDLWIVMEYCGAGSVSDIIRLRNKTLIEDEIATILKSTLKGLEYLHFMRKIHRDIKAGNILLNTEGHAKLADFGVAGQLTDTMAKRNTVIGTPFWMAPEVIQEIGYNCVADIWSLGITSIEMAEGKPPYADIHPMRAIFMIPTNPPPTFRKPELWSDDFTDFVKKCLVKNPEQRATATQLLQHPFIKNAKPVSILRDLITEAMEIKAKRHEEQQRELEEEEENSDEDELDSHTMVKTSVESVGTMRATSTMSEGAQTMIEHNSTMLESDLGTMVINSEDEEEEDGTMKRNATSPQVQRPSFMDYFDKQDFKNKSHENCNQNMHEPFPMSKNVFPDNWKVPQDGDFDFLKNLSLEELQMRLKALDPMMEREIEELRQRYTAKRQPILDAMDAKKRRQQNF
Chain of CLK2 (P49760 whole entry, the tested form may be a part): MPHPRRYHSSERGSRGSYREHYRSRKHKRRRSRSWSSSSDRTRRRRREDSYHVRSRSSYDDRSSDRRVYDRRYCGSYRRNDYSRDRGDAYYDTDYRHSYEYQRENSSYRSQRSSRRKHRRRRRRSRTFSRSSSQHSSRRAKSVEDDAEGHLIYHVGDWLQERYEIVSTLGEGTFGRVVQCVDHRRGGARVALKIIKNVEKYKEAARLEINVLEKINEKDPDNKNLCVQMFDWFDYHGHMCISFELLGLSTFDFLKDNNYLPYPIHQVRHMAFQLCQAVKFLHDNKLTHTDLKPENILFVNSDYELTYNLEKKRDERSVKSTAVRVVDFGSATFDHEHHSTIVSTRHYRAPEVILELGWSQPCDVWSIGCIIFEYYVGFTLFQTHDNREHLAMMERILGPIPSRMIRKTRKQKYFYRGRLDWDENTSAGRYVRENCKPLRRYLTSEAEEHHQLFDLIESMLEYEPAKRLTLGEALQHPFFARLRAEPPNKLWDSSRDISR
Chain of STK38 (Q15208 whole entry, the tested form may be a part): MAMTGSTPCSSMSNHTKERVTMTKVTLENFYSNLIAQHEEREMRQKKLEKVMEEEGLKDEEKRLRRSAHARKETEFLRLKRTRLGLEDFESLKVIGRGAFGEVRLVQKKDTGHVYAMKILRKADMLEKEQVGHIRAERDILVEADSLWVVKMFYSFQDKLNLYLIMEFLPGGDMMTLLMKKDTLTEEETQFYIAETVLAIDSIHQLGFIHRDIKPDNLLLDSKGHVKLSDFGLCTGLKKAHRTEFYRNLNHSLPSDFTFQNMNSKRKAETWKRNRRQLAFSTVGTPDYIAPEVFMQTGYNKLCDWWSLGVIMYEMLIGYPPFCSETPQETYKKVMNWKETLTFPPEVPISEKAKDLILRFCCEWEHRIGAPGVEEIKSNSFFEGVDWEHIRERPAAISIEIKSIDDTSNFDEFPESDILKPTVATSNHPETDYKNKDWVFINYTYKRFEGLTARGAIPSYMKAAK
T4 sequence (Q15375 28-998): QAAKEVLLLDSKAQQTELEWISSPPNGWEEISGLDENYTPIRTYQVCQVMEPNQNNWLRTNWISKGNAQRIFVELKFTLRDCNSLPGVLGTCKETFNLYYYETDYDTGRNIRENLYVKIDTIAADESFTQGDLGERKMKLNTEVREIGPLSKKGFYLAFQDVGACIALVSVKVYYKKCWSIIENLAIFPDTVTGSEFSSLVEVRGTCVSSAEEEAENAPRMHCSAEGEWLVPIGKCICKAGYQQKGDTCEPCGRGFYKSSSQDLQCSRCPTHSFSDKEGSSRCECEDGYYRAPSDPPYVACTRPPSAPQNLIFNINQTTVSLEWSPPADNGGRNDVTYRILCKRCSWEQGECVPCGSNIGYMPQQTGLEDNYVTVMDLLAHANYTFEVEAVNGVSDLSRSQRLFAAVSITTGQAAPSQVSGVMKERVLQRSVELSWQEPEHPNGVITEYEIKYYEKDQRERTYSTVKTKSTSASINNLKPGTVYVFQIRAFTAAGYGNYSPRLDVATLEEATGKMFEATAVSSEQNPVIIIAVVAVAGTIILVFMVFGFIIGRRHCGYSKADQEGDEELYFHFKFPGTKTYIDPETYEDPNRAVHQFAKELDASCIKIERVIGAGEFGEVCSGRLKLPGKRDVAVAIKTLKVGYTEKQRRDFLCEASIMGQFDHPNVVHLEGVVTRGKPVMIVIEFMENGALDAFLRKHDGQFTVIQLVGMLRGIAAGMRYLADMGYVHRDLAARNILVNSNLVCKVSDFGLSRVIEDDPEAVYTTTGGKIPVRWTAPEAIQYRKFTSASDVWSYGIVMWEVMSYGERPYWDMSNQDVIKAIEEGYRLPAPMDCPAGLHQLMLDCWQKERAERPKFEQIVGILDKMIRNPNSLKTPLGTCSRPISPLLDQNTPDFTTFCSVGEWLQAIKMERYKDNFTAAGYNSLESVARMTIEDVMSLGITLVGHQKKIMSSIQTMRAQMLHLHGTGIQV
Chain of PTK6 (Q13882 whole entry, the tested form may be a part): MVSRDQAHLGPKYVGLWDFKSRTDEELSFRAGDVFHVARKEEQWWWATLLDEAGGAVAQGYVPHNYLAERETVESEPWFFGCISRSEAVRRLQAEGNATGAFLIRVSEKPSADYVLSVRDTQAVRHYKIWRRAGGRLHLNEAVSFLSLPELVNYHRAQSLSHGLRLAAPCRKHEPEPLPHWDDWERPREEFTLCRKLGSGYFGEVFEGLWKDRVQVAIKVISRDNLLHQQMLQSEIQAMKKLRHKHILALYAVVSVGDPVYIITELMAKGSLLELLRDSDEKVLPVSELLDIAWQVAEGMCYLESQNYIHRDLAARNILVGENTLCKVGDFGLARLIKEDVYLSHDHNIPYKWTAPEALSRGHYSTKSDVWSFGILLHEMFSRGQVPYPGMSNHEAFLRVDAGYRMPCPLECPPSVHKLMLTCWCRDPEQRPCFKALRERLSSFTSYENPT
Chain of CDKL1 (Q00532 whole entry, the tested form may be a part): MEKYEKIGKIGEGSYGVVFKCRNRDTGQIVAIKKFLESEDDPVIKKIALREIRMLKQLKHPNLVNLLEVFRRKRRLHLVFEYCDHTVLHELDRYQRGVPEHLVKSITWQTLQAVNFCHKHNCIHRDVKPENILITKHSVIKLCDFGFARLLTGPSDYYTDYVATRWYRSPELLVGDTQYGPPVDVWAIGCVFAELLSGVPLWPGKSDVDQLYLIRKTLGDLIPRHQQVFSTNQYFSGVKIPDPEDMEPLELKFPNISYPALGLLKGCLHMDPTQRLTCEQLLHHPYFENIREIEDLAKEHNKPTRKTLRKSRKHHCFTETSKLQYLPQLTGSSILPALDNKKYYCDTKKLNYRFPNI
Chain of CSNK1A1L (Q8N752 whole entry, the tested form may be a part): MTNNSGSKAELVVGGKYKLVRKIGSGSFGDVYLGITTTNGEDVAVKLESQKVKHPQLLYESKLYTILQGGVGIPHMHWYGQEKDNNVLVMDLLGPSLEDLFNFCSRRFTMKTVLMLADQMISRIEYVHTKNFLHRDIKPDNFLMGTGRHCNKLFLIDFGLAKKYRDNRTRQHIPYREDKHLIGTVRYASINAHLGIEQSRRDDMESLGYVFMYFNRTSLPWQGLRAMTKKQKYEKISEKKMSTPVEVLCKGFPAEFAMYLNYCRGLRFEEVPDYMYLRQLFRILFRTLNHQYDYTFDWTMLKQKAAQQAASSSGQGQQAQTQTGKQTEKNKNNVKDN
T6 sequence (P54764 20-986): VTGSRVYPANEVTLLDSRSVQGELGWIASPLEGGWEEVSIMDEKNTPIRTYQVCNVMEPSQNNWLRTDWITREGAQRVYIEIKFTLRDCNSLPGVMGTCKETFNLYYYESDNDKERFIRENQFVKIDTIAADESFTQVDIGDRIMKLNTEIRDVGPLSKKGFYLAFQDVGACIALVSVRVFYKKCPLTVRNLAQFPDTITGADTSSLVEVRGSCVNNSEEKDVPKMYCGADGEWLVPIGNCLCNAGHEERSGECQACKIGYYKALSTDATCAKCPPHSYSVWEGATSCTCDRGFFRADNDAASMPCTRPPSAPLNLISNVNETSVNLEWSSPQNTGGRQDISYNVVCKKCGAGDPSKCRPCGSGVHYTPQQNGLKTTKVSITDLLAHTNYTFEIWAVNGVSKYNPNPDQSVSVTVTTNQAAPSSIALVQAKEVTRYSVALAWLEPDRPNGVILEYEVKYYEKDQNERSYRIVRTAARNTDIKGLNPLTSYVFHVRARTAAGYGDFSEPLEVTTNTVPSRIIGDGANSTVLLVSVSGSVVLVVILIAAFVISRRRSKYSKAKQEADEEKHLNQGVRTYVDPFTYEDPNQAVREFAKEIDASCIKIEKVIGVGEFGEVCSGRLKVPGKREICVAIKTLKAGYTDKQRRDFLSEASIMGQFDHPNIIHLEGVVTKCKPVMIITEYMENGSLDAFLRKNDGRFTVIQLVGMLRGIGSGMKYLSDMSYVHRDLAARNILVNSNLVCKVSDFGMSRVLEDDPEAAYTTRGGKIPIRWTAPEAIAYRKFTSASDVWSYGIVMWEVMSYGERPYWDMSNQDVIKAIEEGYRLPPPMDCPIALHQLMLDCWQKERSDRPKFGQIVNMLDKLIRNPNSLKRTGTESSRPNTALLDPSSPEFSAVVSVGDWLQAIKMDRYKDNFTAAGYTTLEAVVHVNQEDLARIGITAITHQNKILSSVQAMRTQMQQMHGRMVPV
T3 sequence (P0C264 whole entry, the tested form may be a part): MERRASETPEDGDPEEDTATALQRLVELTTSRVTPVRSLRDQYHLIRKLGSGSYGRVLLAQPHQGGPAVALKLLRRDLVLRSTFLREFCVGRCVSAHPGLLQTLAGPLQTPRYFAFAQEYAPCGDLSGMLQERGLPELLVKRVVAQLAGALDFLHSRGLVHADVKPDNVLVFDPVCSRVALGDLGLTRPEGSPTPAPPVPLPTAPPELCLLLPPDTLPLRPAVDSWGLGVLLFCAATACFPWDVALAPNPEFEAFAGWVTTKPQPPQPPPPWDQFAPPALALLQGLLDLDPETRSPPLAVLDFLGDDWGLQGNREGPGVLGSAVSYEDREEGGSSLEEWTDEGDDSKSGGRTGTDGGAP

`C[C@@H](Oc1cc(-c2cnn(C3CCNCC3)c2)cnc1N)c1c(Cl)ccc(F)c1Cl` [crizotinib]: the “Crizotinib % occupancy, 1 uM” value in test [1] was determined as 62 ± 3.6%; in test [2], 85 ± 2.3%; in [3], 41 ± 5.6%; in test [4], 38 ± 2.4%; in test [5] it was 71 ± 2.5%; in test [6] it was 53 ± 4.4%. Also, the “Crizotinib % occupancy, 1 uM” value in test [7] is on record as 48 ± 4.2%; in test [20], 68 ± 1.5%; in test [21] it was 75 ± 2.2%; in test [22] it was 68 ± 2.0%. In addition, the inhibition at 1 µM in test [8] was -5%; in test [9] it was -6%; in test [10], -10%; in [11], -2%; in [12] it was 2%; in test [13], -8%. Besides, the inhibition at 1 µM in [14] is -7%; in test [15], -10%; in test [16], 11%; in test [17] it was 1%; in test [18] it was 1%; in test [19] it was 1%.

The term inhibition denotes the drop in the measured response relative to a control, in per cent.
